Assay results from patent publication US20160090556A1, “PRODUCTS COMPRISING MALODOR REDUCTION MATERIALS” (The Procter & Gamble Company, priority 2014, published 2016).

Experiment: Liquid dish neat product liquid-air partition coefficient
Assay type: physicochemical
Conditions: not given

**Q.** For `CC(=O)C=CC1C(C)=CCC(C)C1(C)C` (stereo not shown) [Material 704], which “Log of liquid dish neat product liquid-air partition coefficient (Comment Code K/L)” value (“Log … (Comment Code K/L)” below) is on record?
**A.** K (Log of liquid dish neat product liquid-air partition coefficient greater than or equal to −7)

**Q.** For `CCC=CCC=CCCO` [Material 929], which “Log … (Comment Code K/L)” value is on record?
**A.** K (Log of liquid dish neat product liquid-air partition coefficient greater than or equal to −7)

**Q.** For `C=C(C)C1CC=C(CO)CC1` (stereo not shown) [Material 948], which “Log … (Comment Code K/L)” value is on record?
**A.** K (Log of liquid dish neat product liquid-air partition coefficient greater than or equal to −7)

**Q.** For `CC1(O)CCC2=C(CCCC2(C)C)C1` (stereo not shown) [Material 676], which “Log … (Comment Code K/L)” value is on record?
**A.** K (Log of liquid dish neat product liquid-air partition coefficient greater than or equal to −7)

**Q.** Which “Log … (Comment Code K/L)” value does the source give for `CC1=CCCC2(C)CCC(C(C)(C)O)CC12` (stereo not shown) [Material 712] here?
**A.** K (Log of liquid dish neat product liquid-air partition coefficient greater than or equal to −7)

**Q.** With `C=CCCCCCCCCC=O` [Material 871] as the compound, how does the “Log … (Comment Code K/L)” value read?
**A.** K (Log of liquid dish neat product liquid-air partition coefficient greater than or equal to −7)

**Q.** With `CCCCCCCCCCO` [Material 868] as the compound, how does the “Log … (Comment Code K/L)” value read?
**A.** K (Log of liquid dish neat product liquid-air partition coefficient greater than or equal to −7)

**Q.** Which “Log … (Comment Code K/L)” value does the source give for `CC(C)Cc1ccc(CC(C)C=O)cc1` (stereo not shown) [Material 1033] here?
**A.** K (Log of liquid dish neat product liquid-air partition coefficient greater than or equal to −7)

**Q.** Which “Log … (Comment Code K/L)” value does the source give for `CC(C)=CCC=C(C)C1CC=C(C)CC1` (stereo not shown) [Material 719] here?
**A.** K (Log of liquid dish neat product liquid-air partition coefficient greater than or equal to −7)

**Q.** For `CC(C)=CCCC1=CCC(C#N)CC1` (stereo not shown) [Material 660], which “Log … (Comment Code K/L)” value is on record?
**A.** K (Log of liquid dish neat product liquid-air partition coefficient greater than or equal to −7)

**Q.** With `C=C(C)C1CCC2(C)CCCC(=C)C2C1` (stereo not shown) [Material 615] as the compound, how does the “Log … (Comment Code K/L)” value read?
**A.** K (Log of liquid dish neat product liquid-air partition coefficient greater than or equal to −7)

**Q.** With `CCC(C)(O)CCc1ccccc1` (stereo not shown) [Material 731] as the compound, how does the “Log … (Comment Code K/L)” value read?
**A.** K (Log of liquid dish neat product liquid-air partition coefficient greater than or equal to −7)

Same assay, conditions: class code letter within Comment Code

**Q.** Which “Log … (Comment Code K/L)” value does the source give for `CCCCCC(=O)OCc1ccco1` [Material 338] here?
**A.** K (Log of liquid dish neat product liquid-air partition coefficient greater than or equal to −7)

**Q.** For `CC/C=C\C/C=C\CCO` [Material 546], which “Log … (Comment Code K/L)” value is on record?
**A.** K (Log of liquid dish neat product liquid-air partition coefficient greater than or equal to −7)

**Q.** With `C=CC(C)(CCC=C(C)C)OC(=O)C(C)C` (stereo not shown) [Material 149] as the compound, how does the “Log … (Comment Code K/L)” value read?
**A.** K (Log of liquid dish neat product liquid-air partition coefficient greater than or equal to −7)

**Q.** With `CC(C)=CCCC(C)=CCCc1ccncc1` [Material 135] as the compound, how does the “Log … (Comment Code K/L)” value read?
**A.** K (Log of liquid dish neat product liquid-air partition coefficient greater than or equal to −7)

**Q.** Which “Log … (Comment Code K/L)” value does the source give for `CC(=O)c1ccc2ccccc2c1` [Material 120] here?
**A.** K (Log of liquid dish neat product liquid-air partition coefficient greater than or equal to −7)

**Q.** Which “Log … (Comment Code K/L)” value does the source give for `C=C(C)C1CC=C(C)C(O)C1` (stereo not shown) [Material 531] here?
**A.** K (Log of liquid dish neat product liquid-air partition coefficient greater than or equal to −7)

**Q.** Which “Log … (Comment Code K/L)” value does the source give for `CC(C)c1ccc(CO)cc1` [Material 491] here?
**A.** K (Log of liquid dish neat product liquid-air partition coefficient greater than or equal to −7)

**Q.** With `CC(=O)OC1CC2C3C=CCC3C1C2(C)C` (stereo not shown) [Material 360] as the compound, how does the “Log … (Comment Code K/L)” value read?
**A.** K (Log of liquid dish neat product liquid-air partition coefficient greater than or equal to −7)

**Q.** For `CC=C(C)C(=O)OCCC=CCC` [Material 274], which “Log … (Comment Code K/L)” value is on record?
**A.** K (Log of liquid dish neat product liquid-air partition coefficient greater than or equal to −7)

**Q.** For `CCCCCCCCCCCC(=O)OCCC(C)C` [Material 238], which “Log … (Comment Code K/L)” value is on record?
**A.** K (Log of liquid dish neat product liquid-air partition coefficient greater than or equal to −7)

**Q.** Which “Log … (Comment Code K/L)” value does the source give for `CC1C2CC(CC2C2CCC(O)CC2)C1(C)C` (stereo not shown) [Material 230] here?
**A.** K (Log of liquid dish neat product liquid-air partition coefficient greater than or equal to −7)

**Q.** With `CCC(=O)CCC1C(C)=CCCC1(C)C` (stereo not shown) [Material 293] as the compound, how does the “Log … (Comment Code K/L)” value read?
**A.** K (Log of liquid dish neat product liquid-air partition coefficient greater than or equal to −7)

**Q.** With `CCOC(C)OC1CCCCCCCCCCC1` (stereo not shown) [Material 363] as the compound, how does the “Log … (Comment Code K/L)” value read?
**A.** K (Log of liquid dish neat product liquid-air partition coefficient greater than or equal to −7)

**Q.** For `C=C(C)[C@@H]1CCC2=CC(=O)C[C@@H](C)[C@]2(C)C1` [Material 48], which “Log … (Comment Code K/L)” value is on record?
**A.** K (Log of liquid dish neat product liquid-air partition coefficient greater than or equal to −7)

Same assay, conditions: code letters K, L

**Q.** With `Cc1cc(O)cc(C)c1Cl` [Material 557] as the compound, how does the “Comment Code: Log of liquid dish neat product liquid-air partition coefficient” value (from here on “Comment Code: Log”) read?
**A.** K (Log of liquid dish neat product liquid-air partition coefficient greater than or equal to −7)

**Q.** For `C=CCOC(=O)COc1ccccc1` [Material 743], which “Comment Code: Log” value is on record?
**A.** K (Log of liquid dish neat product liquid-air partition coefficient greater than or equal to −7)

**Q.** Which “Comment Code: Log” value does the source give for `CC1=CCCC2(C)CCC(C(C)(C)O)CC12` (stereo not shown) [Material 712] here?
**A.** K (Log of liquid dish neat product liquid-air partition coefficient greater than or equal to −7)

**Q.** Which “Comment Code: Log” value does the source give for `COc1ccc(CC(C)=O)cc1` [Material 983] here?
**A.** K (Log of liquid dish neat product liquid-air partition coefficient greater than or equal to −7)

**Q.** Which “Comment Code: Log” value does the source give for `C=C(C=O)C(C)CCC=C(C)C` (stereo not shown) [Material 819] here?
**A.** K (Log of liquid dish neat product liquid-air partition coefficient greater than or equal to −7)

**Q.** With `N#C/C=C/c1ccccc1` [Material 556] as the compound, how does the “Comment Code: Log” value read?
**A.** K (Log of liquid dish neat product liquid-air partition coefficient greater than or equal to −7)

**Q.** With `CC(=O)OC1CC2C3C=CCC3C1C2(C)C` (stereo not shown) [Material 360] as the compound, how does the “Comment Code: Log” value read?
**A.** K (Log of liquid dish neat product liquid-air partition coefficient greater than or equal to −7)

**Q.** With `CCCCCCCC1(C)OCC(C)O1` (stereo not shown) [Material 838] as the compound, how does the “Comment Code: Log” value read?
**A.** K (Log of liquid dish neat product liquid-air partition coefficient greater than or equal to −7)

**Q.** For `CC1C2CC(CC2C2CCC(O)CC2)C1(C)C` (stereo not shown) [Material 230], which “Comment Code: Log” value is on record?
**A.** K (Log of liquid dish neat product liquid-air partition coefficient greater than or equal to −7)

**Q.** For `O=C/C=C/c1ccccc1` [Material 554], which “Comment Code: Log” value is on record?
**A.** K (Log of liquid dish neat product liquid-air partition coefficient greater than or equal to −7)

**Q.** For `C=C(C)[C@@H]1CCC2=CC(=O)C[C@@H](C)[C@]2(C)C1` [Material 48], which “Comment Code: Log” value is on record?
**A.** K (Log of liquid dish neat product liquid-air partition coefficient greater than or equal to −7)
